In patent US20230183237A1, “COMPETITIVE AND NONCOMPETITIVE INHIBITORS OF THE MUSCARINIC ACETYLCHOLINE RECEPTOR M5” (Vanderbilt University, priority 2020, published 2023):
Read-outs that look alike come from different tables or passages of the source.

Target: T1, hM5 (Homo sapiens, UniProt P08912)
T1 construct: expressed in transfected cells
T1 sequence (P08912 1-532): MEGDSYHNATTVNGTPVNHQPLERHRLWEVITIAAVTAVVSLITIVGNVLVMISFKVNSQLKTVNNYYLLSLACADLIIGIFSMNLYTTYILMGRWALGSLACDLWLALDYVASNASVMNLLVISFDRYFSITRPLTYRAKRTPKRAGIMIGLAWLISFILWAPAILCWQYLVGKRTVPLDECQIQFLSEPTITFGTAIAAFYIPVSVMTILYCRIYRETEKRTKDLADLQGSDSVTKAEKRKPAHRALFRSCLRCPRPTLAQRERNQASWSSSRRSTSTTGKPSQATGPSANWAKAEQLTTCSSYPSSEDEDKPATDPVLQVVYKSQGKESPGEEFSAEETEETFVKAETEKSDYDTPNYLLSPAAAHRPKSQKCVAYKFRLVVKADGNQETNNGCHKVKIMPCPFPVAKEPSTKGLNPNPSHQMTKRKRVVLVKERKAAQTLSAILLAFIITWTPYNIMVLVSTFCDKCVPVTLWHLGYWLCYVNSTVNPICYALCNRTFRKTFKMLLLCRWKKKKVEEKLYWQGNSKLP
Assay: Calcium mobilization concentration-response (IC50 vs EC80 acetylcholine), CHO hM5
Type: cell-based
Conditions: CELL LINE hM5, read-out: IC50
Summary of the method: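 IC50 values derive from percent maximal acetylcholine response after an EC80 ACh addition, measured as kinetic calcium fluorescence (static ratio, max−min). Test compounds were added 140 s before agonist. Cells: stable hM5-CHO in HEPES-buffered HBSS with 2.5 mM probenecid, pH 7.4; ≥3 independent triplicate determinations.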

[1] = calcium mobilization, EC80 acetylcholine addition

| IC50 (vs EC80 acetylcholine) | IC50 [1] | SMILES |
| --- | --- | --- |
| 20 nM | – | [2H]C1([2H])CC(c2cn3ncnc3cc2F)CC([2H])([2H])N1S(=O)(=O)c1cnn2c1CCC2 [Compound 478, 6-(1-((5,6-dihydro-4H-pyrrolo[1,2-b]pyrazol-3-yl)sulfonyl)piperidin-4-yl-2,2,6,6-d4)-7-fluoro-[1,2,4]triazolo[1,5-a]pyridine] |
| – | > 10000 nM | Cc1cc2nccn2nc1C1CCN(S(=O)(=O)c2ccc(Cl)s2)CC1 [Compound 37, 6-(1-((5-chlorothiophen-2-yl)sulfonyl)piperidin-4-yl)-7-methylimidazo[1,2-b]pyridazine] |
| – | 69 nM | Cc1cc2nccn2nc1C1CCN(S(=O)(=O)c2c(C)nn(C)c2Cl)CC1 [Compound 248, 6-(1-((5-chloro-1,3-dimethyl-1-pyrazol-4-yl)sulfonyl)piperidin-4-yl)-7-methylimidazo[1,2-b]pyridazine] |
| – | 26 nM | Cc1cc2ncnn2cc1C1CCN(S(=O)(=O)c2c(C)nn(C)c2Cl)CC1 [Compound 138, 6-(1-((5-chloro-1,3-dimethyl-1H-pyrazol-4-yl)sulfonyl)piperidin-4-yl)-7-methyl-[1,2,4]triazolo[1,5-a]pyridine] |
| – | 235 nM | Cc1cc2ncnn2cc1C1CCN(S(=O)(=O)c2cnc3c(c2)C(C)CO3)CC1 (centres unmarked) [Compound 136, 3-methyl-5-((4-(7-methyl-[1,2,4]triazolo[1,5-a]pyridin-6-yl)piperidin-1-yl)sulfonyl)-2,3-dihydrofuro[2,3-b]pyridine] |
| 325 nM | – | Cn1ncc(S(=O)(=O)N2CCC(c3c4c(nn3C)CCCC4)CC2)c1Cl [Compound 592, 3-(1-((5-chloro-1-methyl-1H-pyrazol-4-yl)sulfonyl)piperidin-4-yl)-2-methyl-4,5,6,7-tetrahydro-2H-indazole] |
| 86 nM | – | Cc1cc2ncnn2cc1C1(F)CCN(S(=O)(=O)c2cnn(C)c2C(F)F)CC1 [Compound 422, 6-(1-((5-(difluoromethyl)-1-methyl-1H-pyrazol-4-yl)sulfonyl)-4-fluoropiperidin-4-yl)-7-methyl-[1,2,4]triazolo[1,5-a]pyridine] |
| 94 nM | – | Cc1ncc(S(=O)(=O)N2CCC(c3cnc(N(C)C)cc3C)CC2)s1 [Compound 552, N.N,4-trimethyl-5-(1-((2-methylthiazol-5-yl)sulfonyl)piperidin-4-yl)pyridin-2-amine] |
| 2090 nM | – | Cc1c(S(=O)(=O)N2CCC(F)(c3cn4ncnc4cc3F)CC2)cnn1C [Compound 501, 6-(1-((1,5-dimethyl-1H-pyrazol-4-yl)sulfonyl)-4-fluoropiperidin-4-yl)-7-fluoro-[1,2,4]triazolo[1,5-a]pyridine] |
| 148 nM | – | CCc1cc2ncnn2cc1C1CCN(S(=O)(=O)c2cnn(C)c2C#N)CC1 [Compound 407, 4-((4-(7-ethyl-[1,2,4]triazolo[1,5-a]pyridin-6-yl)piperidin-1-yl)sulfonyl)-1-methyl-1H-pyrazole-5-carbonitrile] |
| – | 18 nM | O=S(=O)(c1c(Cl)nc2sccn12)N1CCC(c2cn3ncnc3cc2Cl)CC1 [Compound 344, 6-chloro-5-((4-(7-chloro-[1,2,4]triazolo[1,5-a]pyridin-6-yl)piperidin-1-yl)sulfonyl)imidazo[2,1-b]thiazole] |
| – | 5600 nM | Cc1cc2nccn2nc1C1CCN(S(=O)(=O)c2cn(C)nc2C)CC1 [Compound 55, 6-(1-((1,3-dimethyl-1H-pyrazol-4-yl)sulfonyl)piperidin-4-yl)-7-methylimidazo[1,2-b]pyridazine] |
| 530 nM | – | Cc1ncc(S(=O)(=O)N2CCC(c3cn4ccnc4cc3Cl)CC2)s1 [Compound 589, 5-((4-(7-chloroimidazo[1,2-a]pyridin-6-yl)piperidin-1-yl)sulfonyl)-2-methylthiazole] |
| 58 nM | – | Cn1ncc(S(=O)(=O)N2CCC(c3cn4ncnc4cc3Cl)CC2)c1CC#N [Compound 406, 2-(4-((4-(7-chloro-[1,2,4]triazoto[1,5-a]pyridin-6-yl)piperidin-1-yl)sulfonyl)-1-methyl-1H-pyrazol-5-yl)acetonitrile] |
| > 10000 nM | – | Cc1cc(C(F)(F)F)ncc1C1CCN(S(=O)(=O)c2cnc(C)n2C)CC1 [Compound 396, 5(1-((1,2-dimethyl-1H-imidazol-5-yl)sulfonyl)piperidin-4-yl)-4-methyl-2-(trifluoromethyl)pyridine] |
| – | > 10000 nM | Cc1cc2ncnn2nc1C1CCN(S(=O)(=O)c2cnn(C)c2C(F)(F)F)CC1 [Compound 177, 7-methyl-6-(1-((1-methyl-5-(trifluoromethyl)-1H-pyrazol-4-yl)sulfonyl)piperidin-4-yl)-[1,2,4]triazolo[1,5-b]pyridazine] |
| – | > 10000 nM | Cc1cc(S(=O)(=O)N2CCC(c3nn4ccnc4cc3C)CC2)cnc1Cl [Compound 54, 6-(1-((6-chloro-5-methylpyridin-3-yl)sulfonyl)piperidin-4-yl)-7-methylimidazo[1,2-b]pyridazine] |
| – | 275 nM | Cc1cc2ncnn2cc1[C@@H]1CCN(S(=O)(=O)c2cn(C)nc2C)C[C@H]1F (racemic) [Compound 172, (rac)-6-(trans-1-((1,3-dimethyl-1H-pyrazol-4-yl)sulfonyl)-3-fluoropiperidin-4-yl)-7-methyl-[1,2,4]triazolo[1,5-a]pyridine] |

Continued, compound first:

| SMILES | IC50 (vs EC80 acetylcholine) | IC50 [1] |
| --- | --- | --- |
| Cn1cc(S(=O)(=O)N2CCC(c3cn4ncnc4cc3Cl)CC2)nn1 [Compound 557, 7-chloro-6-(1-((1-methyl-1H-1,2,3-triazol-4-yl)sulfonyl)piperidin-4-yl)-[1,2,4]triazolo[1,5-a]pyridine] | 25 nM | – |
| Cc1cc2ncnn2cc1C1CCN(S(=O)(=O)c2cc(C(F)(F)F)nn2C)CC1 [Compound 146, 7-methyl-6-(1-((1-methyl-3-(trifluoromethyl)-1H-pyrazol-5-yl)sulfonyl)piperidin-4-yl)-[1,2,4]triazolo[1,5-a]pyridine] | – | > 10000 nM |
| Cc1nnc(S(=O)(=O)N2CCC(c3cn4ncnc4cc3C(F)F)CC2)s1 [Compound 556, 2-((4-(7-(difluoromethyl)-[1,2,4]triazolo[1,5-a]pyridin-6-yl)piperidin-1-yl)sulfonyl)-5-methyl-1,3,4-thiadiazole] | 342 nM | – |
| Cn1ncc(S(=O)(=O)N2CCC(c3cn4ncnc4cc3Cl)CC2)c1C#N [Compound 405, 4-((4-(7-chloro-[1,2,4]triazolo[1,5-a]pyridin-6-yl)piperidin-1-yl)sulfonyl)-1-methyl-1H-pyrazole-5-carbonitrile] | 11 nM | – |
| [2H]c1nc2cc(Cl)c(C3=CCN(S(=O)(=O)c4cnc(C)s4)CC3)cn2n1 [Compound 611, 5-((4-(7-chloro-[1,2,4]triazolo[1,5-a]pyridin-6-yl-2-d)-3,6-dihydropyridin-1(2H)-yl)sulfonyl)-2-methylthiazole] | 97 nM | – |
| CCc1cc2ncnn2cc1C1CCN(S(=O)(=O)c2cnn(C)c2C)CC1 [Compound 297, 6-(1-((1,5-dimethyl-1H-pyrazol-4-yl)sulfonyl)piperidin-4-yl)-7-ethyl-[1,2,4]triazolo[1,5-a]pyridine] | – | 73 nM |
| Cc1ncc(S(=O)(=O)N2CCC(c3ccc4ncnn4c3)CC2)s1 [Compound 480, 5-((4-([1,2,4]triazolo[1,5-a]pyridin-6-yl)piperidin-1-yl)sulfonyl)-2-methylthiazole] | > 10000 nM | – |
| Cc1cc2nccnc2cc1C1=CCN(S(=O)(=O)c2cnn(C)c2C)CC1 [Compound 354, 6-(1((1,5-dimethyl-1H-pyrazol-4-yl)sulfonyl)-1,2,3,6-tetrahydropyridin-4-yl)-7-methylquinoxaline] | – | 64 nM |
| CCn1cc(S(=O)(=O)N2CCC(c3cn4ncnc4cc3C)CC2)c(C2CC2)n1 [Compound 134, 6-(1-((3-cyclopropyl-1-ethyl-1H-pyrazol-4-yl)sulfonyl)piperidin-4-yl)-7-methyl-[1,2,4]triazolo[1,5-a]pyridine] | – | > 10000 nM |
| Cc1cc2ncccc2cc1C1CCN(S(=O)(=O)c2cnc3n2CCCC3)CC1 [Compound 450, 7-methyl-6-(1-((5,6,7,8-tetrahydroimidazo[1,2-a]pyridin-3-yl)sulfonyl)piperidin-4-yl)quinoline] | 39 nM | – |
| Cc1nn(C)c(Cl)c1S(=O)(=O)N1CCC(c2cn3ncnc3cc2F)CC1 [Compound 228, 6-(1-((5-chloro-1,3-dimethyl-1H-pyrazol-4-yl)sulfonyl)piperidin-4-yl)-7-fluoro-[1,2,4]triazolo[1,5-a]pyridine] | – | 125 nM |
| Cc1cc2c(cc1S(=O)(=O)N1CCC(c3ccc4ncnn4c3C)CC1)C(C)CO2 (centres unmarked) [Compound 85, 6-(1-((3,6-dimethyl-2,3-dihydrobenzofuran-5-yl)sulfonyl)piperidin-4-yl)-5-methyl-[1,2,4]triazolo[1,5-a]pyridine] | – | 6300 nM |
| [2H]C1([2H])Oc2cc(C)c(C3CCN(S(=O)(=O)c4cnc(C)s4)CC3)cc2OC1([2H])[2H] [Compound 392, 2-methyl-5-((4-(7-methyl-2,3-dihydrobenzo[b][1,4]dioxin-6-yl-2,2,3,3-d4)piperidin-1-yl)sulfonyl)thiazole] | – | > 10000 nM |
| COC1(c2cn3ncnc3cc2C)CCN(S(=O)(=O)c2cnn(C)c2C)CC1 [Compound 412, 6-(1-((1,5-dimethyl-1H-pyrazol-4-yl)sulfonyl)-4-methoxypiperidin-4-yl)-7-methyl-[1,2,4]triazolo[1,5-a]pyridine] | > 10000 nM | – |
